We go through three compounds from patent US20250176554A1, “NON-TOXIC […] IN WHICH OZONE SYNERGIZE WITH CARBON DIOXIDE” (priority 2022, published 2025).

The test system of series [1] is Icerya purchasi. As to the kind of experiment: two-stage ozone then carbon dioxide fumigation, lethal rate by staining. The class given is in vivo. The text has this: (§1) Step 1: Placing the pest control object into a sample bottle, which contains coccid insects, and sealing the sample bottle with a pore size of 10 um filter membrane. This configuration simulates the environment of insects or other creatures hiding deep inside fruits, within stems, or shielded by stacked fruit packages (this test was also validated using stacked sugar apples and wax apples, yielding similar results). The sample is then placed in a fumigation chamber.
(§2) Step 2: After closing the fumigation chamber, vacuuming the chamber to 0.2 bar-0.9 bar, then maintaining this lower pressure for about 2 minutes to confirm that the fumigation chamber is well sealed.
(§3) Step 3: Introducing ozone at a concentration ranging from 40 ppm to 160 ppm into the fumigation chamber until 1.0-1.7 bar, and fumigating for 3-20 minutes.
(§4) Step 4: Exhausting the gas from the fumigation chamber, then vacuuming it to 0.2-0.9 bar, and maintaining this low pressure for about 2 minutes.
(§5) Step 5: Introducing high-concentration carbon dioxide into the fumigation chamber until 1.0-1.7 bar, fumigating for 10-30 minutes.
(§6) Step 6: After the above pest control steps, exhausting the gases from the fumigation chamber and restoring the chamber to atmospheric pressure, then removing the tested objects.
(§7) Step 7: Spraying 0.5 wt % methylene blue aqueous solution (light blue) or 0.05 wt % neutral red staining solution (light red) onto the insects and waiting for 60 minutes. Well-stained insects indicate death. All values are expressed as mean±SD. ANOVA or other appropriate statistical analysis methods were used, with P<0.05 indicating a significant difference.
(§8) Using the same method as Embodiment 1, except that the concentration of the introduced ozone is adjusted (ranging from 40 ppm to 160 ppm). The pressure of the fumigation chamber in Step 2 is about 0.3 bar; in Step 3, it is about 1.3 bar, with the process lasting 5 minutes; in Step 4, it is about 0.3 bar; and in Step 5, the pressure is 1.3 bar, with the process lasting 15 minutes.
(§9) Using the same method as Embodiment 2, except that the evacuation pressure in Step 2 is adjusted (ranging from 0.2 bar to 0.9 bar); the concentration of the introduced ozone is approximately 70 ppm, and other parameters remain the same as those in Embodiment 2.
(§10) Using the same method as Embodiment 2, except that the ozone treatment duration in […] is adjusted (ranging from 3 to 30 minutes); the concentration of the introduced ozone is 70 ppm, and ozone is introduced until the pressure reaches 1.0 bar. Other parameters remain the same as those in Embodiment 2.
(§11) Using the same method as Embodiment 1, except that the treatment period of carbon dioxide is adjusted to 10-50 minutes. The evacuation pressure in the fumigation chamber in Step 2 is 0.3 bar. In Step 3, the pressure after the ozone input is controlled within 1.0-1.4 bar, and the pest-control treatment is conducted for 5 minutes. In Step 4, the fumigation chamber is evacuated to 0.3 bar. In Step 5, the pressure after the input of carbon dioxide (99.5% concentration) is controlled at 1.4 bar, and the pest-control treatment is conducted for 10-50 minutes.

Series [2] deals with Pseudococcidae. The description is as above. The class given is in vivo.
Source text: as §1, §2, §3, §4, §5, §6, §7, §8, §9, §10, §11

The test system of series [3] is coccid insects. The experiment in a line: two-stage ozone then carbon dioxide fumigation, text statements on the insects/pests. Type of series: in vivo.
Source text: as §1, §2, §3, §4, §5, §6, §7

Series [4] concerns silkworm eggs. As to the kind of experiment: ozone then carbon dioxide fumigation of silkworm eggs, hatching. The note with it: ozone pressure 1.4 bar; carbon dioxide introduced for 20 minutes. The class given is in vivo. How it is done: as §11
Using the same experimental conditions as Embodiment 5, when the ozone pressure is 1.4 bar, silkworm eggs were used for testing.

For series [5], the system named is aphids. As to conditions: 10% CO2 in greenhouses; cited from earlier work.
The test system of series [6] is pests. The note with it: 60% CO2, asparagus; cited from earlier work.
In series [7] the test system is mite eggs. As to conditions: vacuum pumping then 60% CO2, normal temperature and normal pressure, at least 16 hours; cited from earlier work.
Series [8] relates to dried apricot pests. The note with it: CO2 under 0.5 times atmospheric pressure; cited from earlier work.
The test system of series [9] is red flour beetle. As to conditions: pressurized CO2, 5 times to 15 times of the standard atmospheric pressure; cited from earlier work.
Series [10] concerns pests. As to conditions: CO2 with 1.8 times of the standard atmospheric pressure; cited from earlier work.
Where [11] appears, read: Step 2 vacuumed pressure 0.2 bar, ozone 70 ppm to 1.3 bar 5 min, then CO2 1.3 bar 15 min.
[12] abbreviates: Step 2 vacuumed pressure 0.3 bar, ozone 70 ppm to 1.3 bar 5 min, then CO2 1.3 bar 15 min.
[13] abbreviates: Step 2 vacuumed pressure 0.4 bar, ozone 70 ppm to 1.3 bar 5 min, then CO2 1.3 bar 15 min.
The mark [14] stands for this setting: Step 2 vacuumed pressure 0.5 bar, ozone 70 ppm to 1.3 bar 5 min, then CO2 1.3 bar 15 min.
Setting [15] is: Step 2 vacuumed pressure 0.6 bar, ozone 70 ppm to 1.3 bar 5 min, then CO2 1.3 bar 15 min.
Where [16] appears, read: Step 2 vacuumed pressure 0.9 bar, ozone 70 ppm to 1.3 bar 5 min, then CO2 1.3 bar 15 min.
Where [17] appears, read: ozone 40 ppm to 1.3 bar 5 min, evacuation 0.3 bar, then CO2 1.3 bar 15 min.
[18] abbreviates: ozone 70 ppm to 1.0 bar for 3 min, evacuation 0.3 bar, then CO2 1.3 bar 15 min.
Setting [19] is: ozone 70 ppm to 1.0 bar for 5 min, evacuation 0.3 bar, then CO2 1.3 bar 15 min.
Setting [20] is: ozone 70 ppm to 1.0 bar for 10 min, evacuation 0.3 bar, then CO2 1.3 bar 15 min.
The mark [21] stands for this setting: ozone 70 ppm to 1.0 bar for 15 min, evacuation 0.3 bar, then CO2 1.3 bar 15 min.
The mark [22] stands for this setting: ozone 70 ppm to 1.0 bar for 20 min, evacuation 0.3 bar, then CO2 1.3 bar 15 min.
[23] abbreviates: ozone 70 ppm to 1.0 bar for 30 min, evacuation 0.3 bar, then CO2 1.3 bar 15 min.
[24] abbreviates: ozone 70 ppm to 1.3 bar 5 min, evacuation 0.3 bar, then CO2 1.3 bar 15 min.
The mark [25] stands for this setting: ozone 100 ppm to 1.3 bar 5 min, evacuation 0.3 bar, then CO2 1.3 bar 15 min.
The mark [26] stands for this setting: ozone 130 ppm to 1.3 bar 5 min, evacuation 0.3 bar, then CO2 1.3 bar 15 min.
The mark [27] stands for this setting: ozone 160 ppm to 1.3 bar 5 min, evacuation 0.3 bar, then CO2 1.3 bar 15 min.
Where [28] appears, read: ozone at 1.0 bar 5 min, evacuation 0.3 bar, CO2 99.5% at 1.4 bar for 10 min.
[29] abbreviates: ozone at 1.0 bar 5 min, evacuation 0.3 bar, CO2 99.5% at 1.4 bar for 15 min.
Setting [30] is: ozone at 1.0 bar 5 min, evacuation 0.3 bar, CO2 99.5% at 1.4 bar for 20 min.
The mark [31] stands for this setting: ozone at 1.0 bar 5 min, evacuation 0.3 bar, CO2 99.5% at 1.4 bar for 30 min.
Setting [32] is: ozone at 1.0 bar 5 min, evacuation 0.3 bar, CO2 99.5% at 1.4 bar for 40 min.
The mark [33] stands for this setting: ozone at 1.4 bar 5 min, evacuation 0.3 bar, CO2 99.5% at 1.4 bar for 10 min.
Setting [34] is: ozone at 1.4 bar 5 min, evacuation 0.3 bar, CO2 99.5% at 1.4 bar for 15 min.
Setting [35] is: ozone at 1.4 bar 5 min, evacuation 0.3 bar, CO2 99.5% at 1.4 bar for 20 min.
The mark [36] stands for this setting: ozone at 1.4 bar 5 min, evacuation 0.3 bar, CO2 99.5% at 1.4 bar for 30 min.
Setting [37] is: ozone at 1.4 bar 5 min, evacuation 0.3 bar, CO2 99.5% at 1.4 bar for 40 min.

In the case of `O=[O+][O-]` [ozone], the Lethal rate in series [1] (setting [11]) was determined as 100 ± 0%; in series [1] (setting [12]) it was 96 ± 3%; in [1] (setting [13]) it was 85 ± 12%; in [1] (setting [14]), 68 ± 17%; in [1] (setting [15]), 48 ± 16%; in [1] (setting [16]), 37 ± 18%. In addition, the Lethal rate is recorded as 76 ± 10% in series [1] (setting [17]); 64 ± 14% in series [1] (setting [18]); 68 ± 9% in series [1] (setting [19]); 87 ± 9% in series [1] (setting [20]); 100 ± 1% in [1] (setting [21]); 100 ± 0% in [1] (setting [22]). Moreover, the Lethal rate in [1] (setting [23]) is on record as 100 ± 0%; in [1] (setting [24]), 98 ± 3%; in series [1] (setting [25]) it was 100 ± 0%; in series [1] (setting [26]), 100 ± 0%; in [1] (setting [27]) it was 100 ± 0%; in series [2] (setting [11]), 100 ± 0%. The Lethal rate was found to be 91 ± 5% in series [2] (setting [12]); 82 ± 10% in series [2] (setting [13]); 71 ± 13% in [2] (setting [14]); 52 ± 14% in series [2] (setting [15]); 30 ± 17% in series [2] (setting [16]); 81 ± 11% in series [2] (setting [17]). For the same compound, the Lethal rate came out at 61 ± 16% in series [2] (setting [18]); 71 ± 10% in series [2] (setting [19]); 91 ± 7% in series [2] (setting [20]); 100 ± 0% in series [2] (setting [21]); 100 ± 0% in [2] (setting [22]); 100 ± 0% in series [2] (setting [23]). The Lethal rate is recorded as 93 ± 7% in [2] (setting [24]); 100 ± 0% in series [2] (setting [25]); 100 ± 0% in [2] (setting [26]); 100 ± 0% in series [2] (setting [27]); 100% in series [3] (ozone 70 ppm, 90 minutes after the treatment in Step 3). The final lethal rate in series [3] (vacuum pressure 0.4 or 0.5 bar, ozone 70 ppm, after 90 minutes of ozone treatment) is 100%.
Regarding ozone and carbon dioxide, the “time to completely kill the pests” value in series [3] (ozone 5 minutes at 1.0 bar, in synergy with carbon dioxide) was “about 30 minutes”; in series [3] (ozone 5 minutes at 1.4 bar, then carbon dioxide), 15 min. Besides, in series [3] (two-stage fumigation, within 20 minutes), the “pest control / pest elimination” value turned out to be 100%. In [4], the “hatching of silkworm eggs” value is “none of the silkworm eggs in the experimental group hatched”.
For `O=C=O` [CO2, carbon dioxide], the Lethal rate worked out at 72 ± 11% in series [1] (setting [28]); 88 ± 11% in series [1] (setting [29]); 97 ± 4% in series [1] (setting [30]); 100 ± 0% in series [1] (setting [31]); 100 ± 0% in series [1] (setting [32]); 92 ± 11% in [1] (setting [33]). The Lethal rate in series [1] (setting [34]) worked out at 100 ± 0%; in series [1] (setting [35]) it was 100 ± 0%; in series [1] (setting [36]), 100 ± 0%; in series [1] (setting [37]), 100 ± 0%; in [2] (setting [28]) it was 81 ± 6%; in [2] (setting [29]), 91 ± 8%. The Lethal rate is reported as 100 ± 1% in series [2] (setting [30]); 100 ± 0% in series [2] (setting [31]); 100 ± 0% in series [2] (setting [32]); 89 ± 8% in series [2] (setting [33]); 100 ± 1% in series [2] (setting [34]); 100 ± 0% in series [2] (setting [35]). Besides, the Lethal rate in series [2] (setting [36]) and in series [2] (setting [37]) was 100 ± 0% in each case. For the same compound, the “time required to achieve minimal pest control effects” value in series [5] was “one week”. The “time required to achieve minimal pest control” value in [6] is given as “more than 48 hours”. For the same compound, in series [7], the “mortality of mite eggs” value was 89%. Moreover, the “time required to kill 90% of pests” value in series [8] was “over 24 hours”. Further, the “time required to kill most of the pests” value in series [9] was “at least 1.8 days”. Moreover, the “time required to achieve the minimal pest control” value in [10] is “at least 120 minutes”.
